Data reported in paper PMC6222672, “Pharmacokinetic and Metabolism Studies of 12-Riboside-Pseudoginsengenin DQ by UPLC-MS/MS and UPLC-QTOF-MS^E” (Molecules : A Journal of Synthetic Chemistry and Natural …, 2018).
“Also recorded” adds a separate entry of the source. Like-named read-outs stand apart in the source and are kept apart here.

Columns and labels:
S180 cells = assay: MTT cell viability test, S180 cells; format: cell-based; conditions: 1-200 μM, 44 h
Source text: (§1) Antitumor activity test of RPDQ in vitro by using S180, SPC-A-1 and A549 cells
(§2) Since the startmaterial for the semi-synthesis of 12-Riboside-pseudoginsengenin DQ (RPDQ) was pseudoginsengenin DQ (PDQ), the antitumor activities of RPDQ […]
(§3) and PDQ were both tested.
(§4) The SPC-A-1 and S180 tumor cell lines were purchased from Wuhan Procell Life Science & Technology Co,.Ltd. A549 tumor cell lines were purchased from iCell Bioscience Inc (Shanghai) Biological Co., Ltd.
(§5) 2. Experimental procedure
(§6) S180 cells (1 × 10^5 cells/mL) were seeded into a 96-well plate. After 24 h, pretreated with various concentrations of RPDQ or PDQ (1-200 μM) for 44 h at 37℃, and the cells were treated with MTT for 4 h. The formazan crystal product in the cells were dissolved with acid isopropanol. The absorbance was measured at 570 nm with a […]
(§7) SPC-A-1/A549 cells(1×10^5 cells/mL) were seeded into a 96-well plate. After 24 h, pretreated with various concentrations of RPDQ or PDQ (1-200 μM) for 44 h at 37℃ , and the cells were treated with MTT for 4 h. […] The absorbance was measured at 490 nm with a […]
(§8) Cell viability was calculated by the following formula: Cell viability (%)= 1-{(ODcontrolgroup-ODtreatedgroup)/ODcontrol group×100%}.
(§9) All data were processed by statistical software SPSS 17.0. The data were expressed as Mean ± Standard Deviation. The differences between groups were analyzed by one-way analysis of variance. […]

[1] = Pharmacokinetic study of RPDQ in rats after intragastric and intravenous administration (UPLC-MS/MS of plasma); format: in vivo, Wistar rats; conditions: for AUC(0-t): read-out: AUC(0–60); for bioavailability: read-out: F (absolute bioavailability)
Method: The experiments on animals were approved by the Review Committee of Animal Care and Use of Jilin University. The study was conducted according to the ethical principles for animal use and care. Wistar rats (200 ± 20 g) were provided by Changchun Yisi Laboratory Animal Co. Ltd. (Changchun, China). All rats were housed in an environmentally controlled room (12 h light/dark cycle; temperature: 22 ± 2 °C; relative humidity: 55 ± 5%), and except during fast before experiments, the rats were fed with standard laboratory food and water ad libitum.
In the pharmacokinetic study, the rats were divided into different groups (n = 6, three males and three females): (1) RPDQ (6 mg/kg, i.g.), (2) RPDQ (12 mg/kg, i.g.), (3) RPDQ (24 mg/kg, i.g.), and (4) RPDQ (0.3 mg/kg, i.v.).
From the fossa orbitalis vein, the whole blood (150 μL) was collected at 0.5, 0.75, 1, 2, 3, 4, 6, 9, 10, 12, 18, 24, 48, and 60 h after oral administration, and 0.25, 0.5, 0.75, 1, 1.5, 2, 2.5, 3, 6, 12, and 24 h after intravenous administration. All the blood samples were anticoagulated with sodium heparin. After collection, the whole blood was centrifuged at 4000 rpm and 4 °C for 20 min to obtain plasma.
Plasma samples (being stored at −20 °C before analysis) were thawed and vortexed at room temperature. The mixture of each plasma sample (50 μL) and 20R-panaxadiol solution (100 ng/mL, 500 μL) was vortexed (2 min) and centrifuged (13,000 rpm, 4 °C, 10 min). The clear supernatant was obtained and transferred into vials, and 2 μL of it were then kept in autosampler at 4 °C and injected for analysis.
The analysis of pharmacokinetic was conducted on a Waters ACQUITY UPLC System coupled with a XEVO TQ-S mass spectrometer equipped with an electrospray ionization source (Waters, Milford, MA, USA). Separation was performed on a Waters BEH C18 UPLC column (2.1 × 50 mm, 1.7 μm) at 40 °C. The mobile phase, 0.1% formic aqueous solution (A) and 0.1% formic acid in acetonitrile (B) in proportions, was adjusted with a gradient elution programme (0 min, 40% B; 0~2 min, 40~100% B; 2~2.5 min, 100% B; 2.5~2.6 min, 100~40% B; 2.6~3.5 min, […]). The flow rate was kept constant at 0.3 mL/min. Chromatography of the RPDQ and IS was performed within 3.5 min. The injection volume was 2 μL. The multiple reaction monitoring (MRM) mode was performed in ESI^+. The main parameters were as follows: capillary voltage: 3000 V; source temperature: 150 °C; desolvation temperature: 300 °C; desolvation gas flow: 800 L/h; cone gas flow: 150 L/h; nebulizer gas flow: 7 bar; collision gas flow: 0.15 mL/min; cone voltage: 35 V and 28 V for RPDQ and IS, respectively; collision energy: 10 eV and 6 eV for RPDQ and IS, respectively. Masslynx V4.1 workstation (Waters, Milford, MA, USA) was used for data acquisition and processing.
Samples containing RPDQ above the upper limit of quantification were diluted and re-analyzed. The pharmacokinetics analysis in non-compartmental mode was conducted by Drug and Statistics (DAS) 3.0 pharmacokinetic software programme (Mathematical Pharmacology Professional Committee of China, Shanghai, China). The concentration versus the time curve was plotted. The time to reach the peak concentration (Tmax) and the maximum plasma concentration (Cmax) were obtained after oral administration. The results are shown as the mean ± standard deviation. The absolute bioavailability (F%) was calculated using the equation (AUCp.o. × Dosei.v.)/(AUCi.v. × Dosep.o.) × 100%.

A549 cells = assay: MTT cell viability test, A549 cells; format: cell-based; conditions: 1-200 μM, 44 h
Source text: as §1, §2, §3, §4, §5, §6, §7, §8, §9

[2] = both sexes, Wistar, rat, plasma, iv, rats, 0.3 mg/kg i.v.
[3] = both sexes, Wistar, rat, plasma, po, rats, 6 mg/kg intragastric
[4] = both sexes, Wistar, rat, plasma, po, rats, 12 mg/kg intragastric
[5] = both sexes, Wistar, rat, plasma, po, rats, 24 mg/kg intragastric

CC(C)(O)[C@@H]1CC[C@@](C)([C@H]2CC[C@]3(C)[C@@H]2[C@H](O[C@@H]2O[C@H](CO)[C@@H](O)[C@H]2O)C[C@@H]2[C@@]4(C)CC[C@H](O)C(C)(C)[C@@H]4CC[C@]23C)O1 [RPDQ, 20S, 24S-12-O-β-D-ribofuranosyl-dammar-20, 24-epoxy-3β, 12β, 25-triol]
anticancer / anti-proliferation effect (S180 cells): good anti-proliferation effects; also recorded: significant anticancer activity | AUC(0-inf) [1, 2]: 8330 ± 270 ng·h/mL | Tmax [1, 2]: 0.25 h | half-life [1, 2]: 176 ± 30.6 min | AUC(0-t) [1, 2]: 8300 ± 258 ng·h/mL | clearance ([1]; both sexes, Wistar, rat, plasma, iv, rats, 0.3 mg/kg i.v., read-out: CLz (converted)): 0.667 mL/min/kg | Vd ([1]; both sexes, Wistar, rat, plasma, iv, rats, 0.3 mg/kg i.v., read-out: Vz): 11.52 ± 0.02 L/kg | AUC(0-inf) [1, 3]: 9570 ± 546 ng·h/mL | Tmax [1, 3]: 7 ± 1.55 h | half-life [1, 3]: 755 ± 76.8 min | bioavailability ([1]; both sexes, Wistar, rat, plasma, po, rats, 6 mg/kg intragastric vs 0.3 mg/kg i.v.): 5.55% | AUC(0-t) [1, 3]: 9210 ± 608 ng·h/mL | AUC(0-inf) [1, 4]: 17700 ng·h/mL | Tmax [1, 4]: 7.5 ± 1.63 h | half-life [1, 4]: 770 ± 33.6 min | bioavailability ([1]; both sexes, Wistar, rat, plasma, po, rats, 12 mg/kg intragastric vs 0.3 mg/kg i.v.): 5.15% | AUC(0-t) [1, 4]: 17100 ng·h/mL | AUC(0-inf) [1, 5]: 42600 ng·h/mL | Tmax [1, 5]: 7 ± 1.55 h | half-life [1, 5]: 824 ± 66.6 min | bioavailability ([1]; both sexes, Wistar, rat, plasma, po, rats, 24 mg/kg intragastric vs 0.3 mg/kg i.v.): 6.08% | AUC(0-t) [1, 5]: 40400 ng·h/mL | concentration at 6 h ([1]; both sexes, Wistar, rat plasma sample collected at 6 h after an oral dose of 12 mg/kg): 1000 ng/mL | CLz ([1]; rats, 6 mg/kg intragastric): 0.63 ± 0.036 L/h/kg | Vz ([1]; rats, 6 mg/kg intragastric): 11.45 ± 1.55 L/kg | CLz ([1]; rats, 12 mg/kg intragastric): 0.68 ± 0.022 L/h/kg | Vz ([1]; rats, 12 mg/kg intragastric): 12.53 ± 0.59 L/kg | CLz ([1]; rats, 24 mg/kg intragastric): 0.57 ± 0.044 L/h/kg | Vz ([1]; rats, 24 mg/kg intragastric): 11.28 ± 1.69 L/kg | time at which RPDQ could still be quantified in plasma ([1]; rats, after gastrointestinal administration): 60 h | anticancer / anti-proliferation effect (A549 cells): good anti-proliferation effects; also recorded: significant anticancer activity
